Measured values from patent publication US7446125B2, “Derivatives of nitroproline compounds, processes of manufacture and uses in the treatment of integrin mediated disorders” (Universidad del Pais Vasco, priority 2005, dated 2008).
Values belong to the compound of their own block, whether it stands above or below them.

Columns and labels:
VLA-4 [1] = biological target: T1, VLA-4 (Mus musculus, UniProt P09055+Q00651); assay: B16M (MB16) melanoma cell adhesion to primary cultured hepatic sinusoidal endothelial (HSE) cells; assay type: cell-based, murine; details: B16M cells preincubated with compound, 50 μg/1×10^6 MB16 cells; TNF-alpha-treated HSE or H2O2-treated B16M cells; FIG. 6
T1 construct: The tumor used is the B16F10 subline of MB16, the VLA-4 expression of which is constitutive; endogenous in cells; host or cells: B16F10 (MB16/B16M) murine melanoma cells; VCAM-1 on primary mouse HSE cells
T1 sequence (Q00651 41-1039): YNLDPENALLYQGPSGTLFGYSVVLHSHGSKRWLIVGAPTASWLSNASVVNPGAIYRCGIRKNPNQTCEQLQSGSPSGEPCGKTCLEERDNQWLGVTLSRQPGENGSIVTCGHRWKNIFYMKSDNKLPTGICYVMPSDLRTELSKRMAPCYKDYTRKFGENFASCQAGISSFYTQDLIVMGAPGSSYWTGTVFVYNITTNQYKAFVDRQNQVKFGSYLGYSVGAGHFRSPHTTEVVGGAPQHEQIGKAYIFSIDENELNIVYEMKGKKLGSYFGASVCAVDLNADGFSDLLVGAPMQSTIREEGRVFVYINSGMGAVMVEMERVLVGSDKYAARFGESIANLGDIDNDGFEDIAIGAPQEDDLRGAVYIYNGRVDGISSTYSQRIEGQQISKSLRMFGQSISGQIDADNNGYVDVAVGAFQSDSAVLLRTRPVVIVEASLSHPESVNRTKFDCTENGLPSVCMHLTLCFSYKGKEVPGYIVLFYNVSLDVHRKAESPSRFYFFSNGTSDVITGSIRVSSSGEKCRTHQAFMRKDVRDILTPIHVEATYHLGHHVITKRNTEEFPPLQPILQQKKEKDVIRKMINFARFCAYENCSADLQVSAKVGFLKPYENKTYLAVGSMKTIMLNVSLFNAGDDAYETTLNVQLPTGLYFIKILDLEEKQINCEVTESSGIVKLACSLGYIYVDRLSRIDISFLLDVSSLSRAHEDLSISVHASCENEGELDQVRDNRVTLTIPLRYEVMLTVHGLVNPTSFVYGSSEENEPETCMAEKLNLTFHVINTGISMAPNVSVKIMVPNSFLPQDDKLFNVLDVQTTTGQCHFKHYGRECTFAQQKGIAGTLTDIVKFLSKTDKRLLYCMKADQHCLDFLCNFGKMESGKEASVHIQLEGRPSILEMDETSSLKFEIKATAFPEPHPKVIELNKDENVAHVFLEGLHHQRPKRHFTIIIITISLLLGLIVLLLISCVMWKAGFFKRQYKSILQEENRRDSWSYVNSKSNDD
T1 sequence (P09055 21-798): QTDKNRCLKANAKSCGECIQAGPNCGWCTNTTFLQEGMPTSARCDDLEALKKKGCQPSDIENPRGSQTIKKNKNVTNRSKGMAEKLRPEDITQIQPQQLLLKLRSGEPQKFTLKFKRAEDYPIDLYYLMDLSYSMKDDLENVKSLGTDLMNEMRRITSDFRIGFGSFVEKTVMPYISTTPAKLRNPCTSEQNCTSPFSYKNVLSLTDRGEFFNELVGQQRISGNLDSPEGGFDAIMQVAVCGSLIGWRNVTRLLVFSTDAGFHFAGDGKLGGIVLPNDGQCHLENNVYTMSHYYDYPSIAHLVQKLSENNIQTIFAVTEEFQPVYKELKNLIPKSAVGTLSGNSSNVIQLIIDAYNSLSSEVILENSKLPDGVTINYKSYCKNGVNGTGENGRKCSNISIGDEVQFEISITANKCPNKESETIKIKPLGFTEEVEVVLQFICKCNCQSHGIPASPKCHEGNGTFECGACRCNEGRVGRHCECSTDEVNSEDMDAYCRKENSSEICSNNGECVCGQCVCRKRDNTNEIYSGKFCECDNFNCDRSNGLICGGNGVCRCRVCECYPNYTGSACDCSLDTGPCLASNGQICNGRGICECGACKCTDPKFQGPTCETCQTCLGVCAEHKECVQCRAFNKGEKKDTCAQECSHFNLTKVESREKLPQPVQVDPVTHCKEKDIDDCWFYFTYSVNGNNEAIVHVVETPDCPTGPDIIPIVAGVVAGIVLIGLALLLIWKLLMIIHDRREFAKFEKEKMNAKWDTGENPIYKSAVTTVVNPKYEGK
Description: The tumor used is the B16F10 subline of MB16, the VLA-4 expression of which is constitutive.
The MB16 tumor cells (subline B16F10) are cultured in incubator at 37° C., with 5% CO2 atmosphere, in DMEM medium (Dulbecco's modified Eagle's medium), adjusted to pH 7.4 and supplemented with penicillin (100 U/ml), streptomycin (100 μg/ml) and 5% fetal bovine serum. The cells are maintained and subcultured according to a previously-described method (Vidal-Vanaclocha et al. Cancer Research, 1994, 54, 2667).
The hepatic sinusoidal cells are isolated from C57BU6J mice (males, age 6-8 weeks) supplied by IFFA Credo (L'Arbreole, France). For their purification and identification, the previously-described protocol is employed (Vidal-Vanaclocha et al. Hepatology, 1993, 18, 328-339). The primary HSE cell cultures are obtained by seeding the cells on a Type I collagen substrate (Sigma Chemicals Co, St Louis, Mo.) in the presence of DMEM, supplementing with penicillin (100 U/ml), streptomycin (100 μg/ml) and 10% fetal bovine serum, at 37° C. in 5% CO2 atmosphere.
The endothelial cells are isolated 24 hours prior to the adhesion test and are seeded on 24-well plate, maintaining them a minimum of 4 hours in free serum medium before incubating them with DMEM in the presence or not of 10 ng/ml TNF-α for 6 hours. The B16 cells are marked with 40 μg/ml of the BCECF-AM fluorescent probe (carboxyfluorescein, 2′,7′-bis-(2-carboxy-etyl)-5-(6)carboxyfluorescein aminoxymethyl ester), supplied by Molecular Probes Inc. (Oregon, USA). Afterward, a washing with DMEM medium without serum is performed to remove the excess flurorchromium, and the compounds of general formula I are incubated at 37° C. for 15 minutes at the concentration of 50 μg/1×10^6 MB16 cells. This is followed by two washings, the number of visible cells being calculated by means of the trypan blue dye exclusion test, and they are resuspended to a concentration of 2×10^5 cells/ml. One (1) ml of the MB16 cell suspension is added to each well on the primary HSE cell culture plate, and the co-cultures are incubated at 37° C. for 8 minutes. The percentage of cellular adhesion is calculated by means of a previously-described fluorescence measurement system (Vidal-Vanaclocha et al. Cancer Research, 1994, 54, 2667).
Next, the potential VLA-4 antagonism of compounds 11 was tested through a previously established model on VLA-4NCAM-1-interaction-dependent B16M cell adhesion to primary cultured hepatic sinusoidal endothelial (HSE) cells in vitro.

Solubility in water = assay type: physicochemical; details: compared with 11f
B16M cells [2] = assay: Hepatic metastasis of intrasplenically injected, compound-pretreated B16M cells; assay type: in vivo, C57BU6J mice; details: mice intrasplenically injected with pretreated B16M cells relative to untreated cells; P<0.01; FIG. 7
Description: A description is provided in following of the effect of the le compound on the metastatic capacity of MB16 in in-vivo tests. For this purpose, the MB16 cells treated with le are inoculated intrasplenically in C57BU6J mice (3×10^5 viable cells per animal, resuspended in endotoxin-free sterile saline solution), and the microvascular retention within the first 18 hours and their ability to develop metastasis on day 12 following the tumor injection is determined.
(§1) B16M cells were cultured for 24 hours in the presence 50 μg/ml of compound 11d, or […] anti-murine VLA-4 antibody. Cultured cells were fixed and processed for the immunohistochemical detection of Ki-67 antigen expression. Next, a computed-aid microscopic image analysis system was used to discriminate stained cells (brown nuclei) and calculate the average number of Ki-67 antigen-expressing cells per 1×10^4 cells. The results are the mean±SD of 6 independent fields, from 3 different experiments (n=18).

VLA-4 [3] = biological target: T1, VLA-4; assay: B16M (MB16) cell adhesion to immobilized recombinant human VCAM-1; assay type: cell-based, murine; details: IL-1b (interleukin-1b)-treated melanoma cells; FIG. 3
[4] = system: VEGF production by soluble VCAM-1-stimulated B16M cells; assay: VEGF production by soluble VCAM-1-treated B16M cells in vitro; assay type: cell-based, murine; details: soluble VCAM-1-stimulated cells; FIG. 4
B16M cells [5] = assay: Cell viability, cytotoxicity, intracellular oxidative metabolism and proliferation rate of treated melanoma cells; assay type: cell-based, murine
Description: as §1

SMILES: CC[C@H](C)[C@H](OCc1ccccc1)[C@H]1[C@H]([N+](=O)[O-])[C@H](C2CC2)N[C@@H]1C(=O)NCC(=O)O [Compound 11h, 2-[(2S,3R,4S,5S)-3-[(1S,2S)-1-(benzyloxy)-2-methylbutyl]-5-cyclopropyl-4-nitropyrrol-idine-2-carboxamido]acetic acid]
antiadhesive activity (B16M cell adhesion to HSE cells) (VLA-4 [1]): did not show any significant antiadhesive activity

SMILES: CC[C@H](C)[C@H](OCc1ccccc1)[C@@H]1[C@H]([N+](=O)[O-])[C@H](c2ccccc2)N[C@]1(C)C(=O)NCC(=O)O [Compound 11j, 2-[(2S,3R,4S,5S)-3-[(1S,2S)-1-(Benzyloxy)-2-methylbutyl]-2-methyl-4-nitro-5-phenyl-pyrrolidine-2-carboxamido]acetic acid]
antiadhesive activity (B16M cell adhesion to HSE cells) (VLA-4 [1]): did not result in a significant loss of activity

Further lines, with some results ahead:

melting point: 119 to 120 °C
SMILES: CC(C)[C@H](OCc1ccccc1)[C@H]1[C@H]([N+](=O)[O-])[C@H](C(C)(C)C)N[C@@H]1C(=O)NCC(=O)O [Compound 11b, 2-[(2S,3R,4S,5S)-5-tert-Butyl-3-[(S)-1-(benzyloxy)-2-methylpropyl]-4-nitropyrrolidine-2-carboxamido]acetic acid]
antiadhesive activity (B16M cell adhesion to HSE cells) (VLA-4 [1]): did not show any significant antiadhesive activity

solubility in water (Solubility in water): higher solubility in water
adhesion of melanoma cells to immobilized VCAM-1 (VLA-4 [3]): completely abrogated
SMILES: CC[C@H](C)[C@H](OCc1ccccc1)[C@H]1[C@H]([N+](=O)[O-])[C@H](c2ccccc2)N[C@@H]1C(=O)NCC(=O)O [Compound 11d, 2-[(2S,3R,4S,5S)-3-[(1S,2S)-1-(Benzyloxy)-2-methylbutyl]-4-nitro-5-phenyl-pyrrolidine-2-carboxamido]acetic acid]
decrease of metastasis density (B16M cells [2]): 60%
decrease of metastasis volume (B16M cells [2]): 95%
antiadhesive activity (B16M cell adhesion to HSE cells) (VLA-4 [1]): comparable antiadhesive activity to monoclonal antibodies against murine VLA-4
VEGF production induced by soluble VCAM-1 [4]: prevented
cell viability and cytotoxicity, intracellular oxidative metabolism, cell-proliferation rates (B16M cells [5]): excluded that antimetastatic effects of 11d compound may have been caused by indirect effects on cell functions

antiadhesive activity (B16M cell adhesion to HSE cells) (VLA-4 [1]): almost inactive
SMILES: CC(C)[C@H](OCc1c(F)cccc1F)[C@H]1[C@H]([N+](=O)[O-])[C@H](c2ccccc2)N[C@@H]1C(=O)NCC(=O)O [Compound 11e, 2-[(2S,3R,4S,5S)-3-[(S)-1-(2,6-Difluorobenzyloxy)-2-methylpropyl]-4-nitro-5-phenyl-pyrrolidine-2-carboxamido]acetic acid]

antiadhesive activity (B16M cell adhesion to HSE cells) (VLA-4 [1]): best activity in vitro
SMILES: CC[C@H](C)[C@H](OCc1ccccc1)[C@H]1[C@H]([N+](=O)[O-])[C@H](C2CCCCC2)N[C@@H]1C(=O)NCC(=O)O [Compound 11f, 2-[(2S,3R,4S,5S)-3-[(1S,2S)-1-(benzyloxy)-2-methylbutyl]-5-cyclohexyl-4-nitropyrrol-idine-2-carboxamido]acetic acid]
